Test results taken from patent US10400263B2, “Tripeptide rhodamine compound” (Kingston Uninversity Higher Education Corporation, priority 2012, dated 2019).

What was measured:
MSSA = assay: LGX staphylocoagulase fluorescence assay, MSSA isolates; format: cell-based, Staphylococcus aureus
Description: (§1) Each sample was rinsed liberally in sterile 1×PBS and varying concentrations of bacterial suspension from 10^0-10^6 were generated by serial dilution in 1×PBS. Additionally, bacterial cultures were furthermore maintained on nutrient agar to assess the coagulase status of the isolate.
(§2) To determine the effects of varying bacterial concentrations with respect to bacterial strains and concentrations of the compounds according to the present invention on staphylocoagulase activity, 100 and 50 μM solutions containing LGX were prepared in 1×PBS with the addition of 0.05 M Tris Buffer and 0.1 M NaCl to maintain a pH of 8.5 using LGX dissolved in MeOH so that final concentration of methanol was no more than 2.5%. Furthermore, an appropriate concentration (100 μM and 50 μM, respectively) of human prothrombin was added to the solution.
(§3) The plate reader used was a Fluostar Optima, and the plates used were Nunclon Surface 96 well plates. Positive controls for each experiment was a strain of MRSA, and the negative control for each experiment was a strain of E. coli, both of which were picked at random to ensure there was no bias within the data. A 1:1 ratio of the LGX solution with PBS was also assayed as “LGX alone” sample, which has been designated as a black line on the graphs below. n=3 cultures were assayed in each case.
(§4) Clinical isolates of Methicillin Resistant Staphylococcus Aureus (MRSA), Methicillin Sensitive Staphylococcus Aureus (MSSA), Staphylococcus Epidermidis, Eschericia coli and other staphyloccal species were cultured on nutrient agar prior to being grown overnight in nutrient broth under shaking conditions at 37° C. Each sample was rinsed liberally in sterile 1×PBS and varying concentrations of bacterial suspension from […] were generated by serial dilution in 1×PBS. Additionally, bacterial cultures were furthermore maintained on nutrient agar to assess the coagulase status of the isolate.
(§5) To determine the effects of varying bacterial concentrations with respect to bacterial strains and LGX concentrations on staphylocoagulase activity, 100 and 50 μM solutions of LGX were prepared in 1×PBS with the addition of 0.05 M Tris Buffer and 0.1 M NaCl to maintain a pH of 8.5 using LGX dissolved in MeOH so that final concentration of methanol was no more than 2.5%. Furthermore, an appropriate concentration (100 μM and 50 μM, respectively) of human prothrombin was added to the solution. 90 μl of LGX solution in addition to each respective bacterial isolate at varying concentrations was added to a microtitre plate. […] The plate reader used was a Fluostar Optima, and the plates used were Nunclon Surface 96 well plates.

E. coli = assay: LGX staphylocoagulase fluorescence assay, E. coli strains; format: cell-based; settings: for fluorescence over the 6 hour time period: high and low concentrations
Description: as §1, §2, §3, §4, §5

S. epidermidis = assay: LGX staphylocoagulase fluorescence assay, S. epidermidis; format: cell-based, Staphylococcus Epidermidis; settings: for fluorescence over the 6 hour time period: S. epidermidis, high and low concentrations
Description: as §1, §2
The plate reader used was a Fluostar Optima, and the plates used were Nunclon Surface 96 well plates. Positive controls for each experiment was a strain of MRSA, and the negative control for each experiment was a strain of E. coli, both of which were picked at random to ensure there was no bias within the data. A 1:1 ratio of the LGX solution with PBS was also assayed as “LGX alone” sample, which has been designated as a black line on the graphs below. n=3 cultures were assayed in each case. […]
(§6) To determine the effects of varying bacterial concentrations with respect to bacterial strains and LGX concentrations on staphylocoagulase activity, 100 and 50 μM solutions of LGX were prepared in 1×PBS with the addition of 0.05 M Tris Buffer and 0.1 M NaCl to maintain a pH of 8.5 using LGX dissolved in MeOH so that final concentration of methanol was no more than 2.5%. […] The plate reader used was a Fluostar Optima, and the plates used were Nunclon Surface 96 well plates.

S. hominus = assay: LGX system, S. hominus; format: cell-based
Description: as §1
as §2, with “Furthermore, an appropriate concentration (100 μM and 50 μM, respectively) of human prothrombin was added to the solution.” left out
The plate reader used was a Fluostar Optima, and the plates used were Nunclon Surface 96 well plates. […]
as §6

What does the source list for `CC(C)[C@H](NC(=O)OC(C)(C)C)C(=O)N1CCC[C@H]1C(=O)N[C@@H](CCCNC(=N)N)C(=O)Nc1ccc2c(c1)Oc1cc(NC(=O)[C@H](CCCNC(=N)N)NC(=O)[C@@H]3CCCN3C(=O)[C@@H](NC(=O)OC(C)(C)C)C(C)C)ccc1C21OC(=O)c2ccccc21` (stereo partly drawn) [LGX, Rho-(Arg-Pro-Val-NHBoc)2]?
samples reaching maximum fluorescence (MSSA; 50 μM LGX, MSSA 10^2, 6 hours): no samples reached maximum fluorescence; samples reaching the maximum reading of 65,000 RFU within 2.5 hours (MSSA; 50 μM LGX, MSSA 10^3): 25%; samples that had reached maximum fluorescence within 6 hours (MSSA; 50 μM LGX, MSSA 10^3): 60%; samples failed to reach maximum fluorescence within 6 hours (MSSA; 50 μM LGX, MSSA 10^5): 5%; samples reaching the maximum reading of 65,000 RFU within 2 hours (MSSA; 50 μM LGX, MSSA 10^5): 75%; time by which maximum fluorescence level was reached (MSSA; 50 μM LGX, MSSA 10^6): ≤ 2 h; samples achieving a fluorescence reading of 20,000 within 1 hour (MSSA; 100 μM LGX, MSSA 10^2): 90%; samples reached maximum fluorescence over a 6 hour time period (MSSA; 100 μM LGX, MSSA 10^2): 25%; samples reached maximum fluorescence within 2 hours (MSSA; 100 μM LGX, MSSA 10^2): 5%; samples reached maximum fluorescence within 4 hours (MSSA; 100 μM LGX, MSSA 10^3): 45%; samples in which fluorescence reached its upper limits within 1 hours (MSSA; 100 μM LGX, MSSA 10^4): 70%; samples remained below maximum fluorescence (MSSA; 100 μM LGX, MSSA 10^4): 20%; LGX SYSTEM (MSSA; MSSA): +; fluorescence over the duration of the experiment (E. coli; 50 μM LGX, E. coli strains 10^6, 10^5, 10^3 and 10^2, FIG. 6): remain consistently low; fluorescence over the 6 hour time period (E. coli; 50 μM LGX, E. coli, FIG. 13): no increase in fluorescence was observed; samples above 20,000 fluorescence units after 1 hour (E. coli; 50 μM LGX, all concentrations of bacteria, E. coli): 0%; fluorescence response within 1 hour (E. coli; 50 μM or 100 μM LGX, E. coli): ≤ 5000 fluorescence units; fluorescence across the 6 hour time period (E. coli; 100 μM LGX, E. coli strains, FIG. 7): remained consistently low; fluorescence over the 6 hour time period (E. coli; 100 μM LGX, E. coli, FIG. 14): no increase in fluorescence was observed; LGX SYSTEM (E. coli; E. COLI): −; fluorescence over the 6 hour time period (S. epidermidis; 50 μM LGX, FIG. 13): no increase in fluorescence was observed; fluorescence over the 6 hour time period (S. epidermidis; 100 μM LGX, FIG. 14): no increase in fluorescence was observed; LGX SYSTEM (S. epidermidis; S. EPIDERMIDIS): −; LGX SYSTEM (S. hominus): −
